Laboratory results published in patent US9193777B2, “Method of treating cardiac arrhythmia with long acting atrial natriuretic peptide(LA-ANP)” (Mayo Foundation for Medical Education and Research, priority 2009, dated 2015).
Marks after values point to notes of the source that are not given here.

How the values were obtained:
[1] = tested on: 10 week old male FVB mice; experiment: Programmed electrical stimulation of the ventricles in anesthetized mice; assay type: in vivo, mouse; conditions: for ERP versus 30 minute saline group (in words) / ERP (ventricular effective refractory period) / Heart rate / PR interval / QRST interval: anesthetized mice; for ERP versus 30 minute saline group (in words): 30 minute treatment, ANOVA; for ERP (ventricular effective refractory period) / Heart rate / PR interval / QRST interval: after 30 minute peritoneal infusion 33 pmol/kg/min following 330 pmol/kg bolus, n=3; for VT score: sum over three mice, after 30 minute infusion, higher score = greater resistance to arrhythmia induction
Protocol: Programmed electrical stimulation of the ventricles was performed across the diaphragm via bipolar electrode catheter placed through an abdominal incision in 10 week old male FVB mice anesthetized with inhaled isoflurane, and was continuously monitored by electrocardiogram. Electrophysiologic parameters were analyzed at baseline and after a 30 minute peritoneal infusion of saline vs. 33 pmol/kg/min ANP or mANP, following a 330 pmol/kg bolus. […] The ventricular tachycardia (VT) score was obtained by scoring 1 point for induction of sustained VT with a single extrastimulus, 2 points for induction with double extrastimuli, and 3 points for failure to induce with single or double extrastimuli. Nonsustained VT (less than 1 second) was not scored. The score for each of three mice in a group was added. A higher score indicates greater resistance to arrhythmia induction.

[2] = tested on: isolated perfused hearts obtained from male rats; experiment: Isolated heart model: atrial monophasic action potential and effective refractory period; conditions: isolated rat heart; for effect on MAP duration (in words): 40-minute perfusion; for decrease in MAPD90 versus baseline: mANP n=8, ANP n=10
Protocol: Atrial monophasic action potentials and effective refractory periods were measured in isolated perfused hearts obtained from male rats. Rapid cardiectomy was performed in male rats weighing 300-350 g, under general anesthesia with pentobarbital. The hearts were retrogradely perfused via the aorta at constant pressure and temperature (100 mmHg and 37° C.) with Kreb's-Henseleit buffer filtered at 0.22 μm and bubbled with 95% O2/5% CO2 at 37° C. and pH 7.4. Coronary perfusion flow was monitored constantly (T402, Transonic Systems, Ithaca, N.Y.) and remained >10 ml/min.
After establishment of a stable perfused heart preparation, the posterior atria were cut away to expose the left and right atrial endocardium and the atrioventricular (AV) node was mechanically crushed, resulting in AV dissociation. The right atrium was paced (Bloom Electrophysiology, via Fischer Imaging, Denver, Colo.) at a cycle length of 150 msec with a 0.1 msec pulse width using a bipolar platinum-tipped electrode (NuMED, Inc., Hopkinton, N.Y.), while the right ventricle was paced at a cycle length of 500 msec. A monophasic action potential (MAP) probe (Harvard Apparatus, Holliston, Mass.) was maintained in a single position on the anterior left atrial endocardium. Amplified signals (IsoDam, World Precision Instruments, Sarasota, Fla.) were digitally acquired at 2 kHz (USB-6210 and LabVIEW 8.2, National Instruments, Austin, Tex.). The MAP duration was measured at 90% repolarization on atrial beats without far field ventricular interference. The effective refractory period (ERP) was measured by delivering extrastimuli via the pacing catheter at decremental coupling intervals following at least 8 beats of a 150 ms cycle-length drive train. […] In separate heart preparations, the perfusion buffer was supplemented after baseline data acquisition with 100 nM of either ANP or mANP to assess the effect of both the wild-type and mutant hormones on MAP duration and ERP.
A two-sided t-test was used for comparison of data, assuming equal variance. Data are expressed as mean±S.E., and results were considered significant at p<0.05.

[3] = 100 nM, 40 minutes perfusion, mean±S.E.

| Compound | ERP versus 30 minute saline group (in words) [1] | ERP (ventricular effective refractory period) [1] | Heart rate [1] | PR interval [1] | QRST interval [1] | VT score [1] | effect on MAP duration (in words) ([2]; 100 nM) | decrease in MAPD90 versus baseline [2, 3] | reduction in effective refractory period (ERP) versus baseline ([2]; 100 nM, 40 minutes perfusion, mean±S.E., mANP n=7, ANP n=6) | effect on ERP (in words) ([2]; 100 nM, compared to wild-type ANP) | MAP duration at 90% repolarization (MAPD90), representative MAP ([2]; after 40-minute perfusion with 100 nM peptide, shortened from 47 msec at baseline) |
| --- | --- | --- | --- | --- | --- | --- | --- | --- | --- | --- | --- |
| CC[C@H](C)[C@@H]1NC(=O)[C@H](CCCNC(=N)N)NC(=O)[C@H](CC(=O)O)NC(=O)[C@H](CCSC)NC(=O)[C@H](CCCNC(=N)N)NC(=O)CNC(=O)CNC(=O)[C@H](Cc2ccccc2)NC(=O)[C@@H](NC(=O)[C@H](CO)NC(=O)[C@H](CO)NC(=O)[C@H](CCCNC(=N)N)NC(=O)[C@H](CCCNC(=N)N)NC(=O)[C@H](CC(C)C)NC(=O)[C@@H](N)CO)CSSC[C@@H](C(=O)N[C@@H](CC(N)=O)C(=O)N[C@@H](CO)C(=O)N[C@@H](Cc2ccccc2)C(=O)N[C@@H](CCCNC(=N)N)C(=O)N[C@@H](Cc2ccc(O)cc2)C(=O)O)NC(=O)CNC(=O)[C@H](CC(C)C)NC(=O)CNC(=O)[C@H](CO)NC(=O)[C@H](CCC(N)=O)NC(=O)[C@H](C)NC(=O)CNC1=O [ANP, atrial natriuretic peptide] | not a significant difference | 28 + 2 msec | 255 + 8 min^−1 | 73 + 4 msec | 23 + 1 msec | 3 | not significantly changed | 0.7 ± 1.7 ms | – | – | – |
| mANP: Full-length 40-amino acid mutant ANP: normal 28-amino acid mature peptide plus an anomalous carboxyl-terminus of 12 residues (SLRRSSCFGGRMDRIGAQSGLGCNSFRYRITAREDKQGWA; listed as Homo sapiens) | significantly shorter | 19 + 4* msec | 243 + 16 min^−1 | 76 + 4 msec | 26 + 1 msec | 5 | significant shortening | 9 ± 2 ms | 7.1 ± 2.4 ms | significant shortening | 41 ms |
